From patent publication US20170130052A1, “A POLYMER BASED ON A MALTODEXTRIN FOR ENCAPSULATING ORGANIC COMPOUNDS” (ROQUETTE ITALIA S.P.A., priority 2014, published 2017)
In brackets after ≈: the same amount, converted by molar mass.

Test: Solubility of ketoprofen/dexamethasone owing to encapsulation in the polymers
Conditions: water

## C[C@@H]1C[C@H]2[C@@H]3CCC4=CC(=O)C=C[C@]4(C)[C@@]3(F)[C@@H](O)C[C@]2(C)[C@@]1(O)C(=O)CO [Dexamethasone]
  solubility: 90 µg/mL (≈ 229 µM)
